Laboratory results published in US11833146B2, “Dementia therapeutic agent combining pyrazoloquinoline derivative and donepezil” (Eisai R&D Management Co., Ltd., priority 2017, dated 2023).

Test system: rats with scopolamine-induced cognitive impairment
Assay: Novel object recognition test using rats with scopolamine-induced cognitive impairment
Assay type: in vivo, rat (male Long Evans)
Conditions: for effect on the percentage of exploration of the novel object (in words): vs disease control group, p<0.05; for percentage of exploration of the novel object in T2: scopolamine 0.7 mg/kg s.c., mean±standard error
From the text: [Test Example 1] Novel Object Recognition Test Using Rats with Scopolamine-Induced Cognitive Impairment
Acetylcholine nervous system disorder has been reported in Alzheimer's disease and Lewy body dementia (Whitehouse et al., Science, 1982, vol. 215, p. 1237, Shimada et al., Neurology, vol. 73, p. 273, 2009, Tiraboschi et al., Neurology 54 (2000) 407-411, Peny et. al., NeuroReport, vol. 5, pp. 747-749 (1994)), and scopolamine-administered animals are utilizable as an animal model for Alzheimer's disease and Lewy body dementia.
Scopolamine is a muscarine receptor inhibitor which blocks acetylcholine nervous system transmission.
6-week-old male Long Evans rats (Institute for Animal Reproduction) were subjected to the test. A habituation process to the experimental procedure was carried out once per day for 2 days prior to the test. In the habituation process, a vehicle was administered to the rats, and then the rats were placed in an empty test apparatus (40 cm×30 cm×45 cm height) and allowed to explore for 3 minutes, and after then placed in a waiting chamber (13 cm×30 cm×45 cm height) for about 1 minute, they were returned to the empty test apparatus again and left for 5 minutes.
An acquisition trial (T1) was carried out on the day of the test. Compound (I) was orally administered 2 hours before T1. Donepezil hydrochloride was orally administered 1 hour before T1. Scopolamine (Wako Pure Chemical Industries, Ltd.) was subcutaneously administered 30 minutes before T1 at a dose of 0.7 mg/kg. In T1, the rats were habituated to the empty test apparatus for 3 minutes and then placed in the waiting chamber. After setting two identical objects in the test apparatus, the rats were returned into the test apparatus again and allowed to freely explore the two identical objects for 5 minutes. The rats were then returned into their rearing cages. After 2 hours, a retention trial (T2) was carried out. The rats were placed in the empty test apparatus for 3 minutes for habituation, and were then transferred into the waiting chamber. After setting an object used in T1 (“familiar” object) and an object not used in T1 (“novel” object) in the test apparatus, the rats were again returned into the test apparatus and allowed to freely explore these objects for 3 minutes. The objects were wiped with a wet wipe impregnated with ethanol after each experiment so as to leave no trace of odor. The behaviors of the rats during T1 and T2 were recorded by a digital video camera, and the total exploration time for each object was manually measured using a stopwatch. Exploratory behavior was defined as the behavior in which the rat brings its nose within 2 cm of the object and directs its nose toward the object.
In the novel object recognition test, the percentage of exploration of the novel object in T2 is considered to be an index for amnesia, reflecting discrimination between the familiar object and the novel object. The percentage of exploration of the novel object was calculated by the following formula. The percentage of exploration of the novel object (%)=N/(N+F)×100 F: time spent in exploring the familiar object N: time spent in exploring the novel object
Rats whose total time spent in exploring the objects during T1 or T2 was 10 seconds or less or rats whose percentage of the time spent in exploring either of the objects during T1 was not less than 70% or not more than 30% of the total exploration time were excluded from the data analysis.
The results were expressed as mean±standard error. The difference between the normal control group untreated with scopolamine and the disease control group treated with scopolamine was analyzed by an unpaired t-test (significant difference: *). The difference between the disease control group and the single drug-treated group was analyzed by Dunnett-type multiple comparison test (significant difference: #).

SMILES	effect on the percentage of exploration of the novel object (in words) (1 mg/kg)	effect on the percentage of exploration of the novel object (in words) (3.3 mg/kg)	percentage of exploration of the novel object in T2 (Table 5, Compound (I) 1 mg/kg alone, oral) [%]	effect on the percentage of exploration of the novel object (in words) (0.03 mg/kg)	effect on the percentage of exploration of the novel object (in words) (0.3 mg/kg)	percentage of exploration of the novel object in T2 (Table 3, Donepezil 0.03 mg/kg oral 1 h before T1) [%]	percentage of exploration of the novel object in T2 (Table 4, Donepezil 0.1 mg/kg oral 1 h before T1) [%]	percentage of exploration of the novel object in T2 (Table 4, Donepezil 0.3 mg/kg oral 1 h before T1, # significant vs disease control)	percentage of exploration of the novel object in T2 (Table 5, Donepezil 0.03 mg/kg alone, oral) [%]
COc1ncc(C)c(-c2ccc3c(c2)[nH]c(=O)c2cnn([C@H]4CCOC4)c23)c1C [Compound (I), (S)-7-(2-methoxy-3,5-dimethylpyridin-4-yl)-1-(tetrahydrofuran-3-yl)-1H-pyrazolo[4,3-c]quinoline-4(5H)-one]	did not exhibit a significant effect	significant ameliorative effect	64.9 ± 2.2						
COc1cc2c(cc1OC)C(=O)C(CC1CCN(Cc3ccccc3)CC1)C2 (stereo not drawn) [Donepezil, donepezil]				did not exhibit a significant effect	significant ameliorative effect	62.7 ± 3.6	66.2 ± 4.0	70.4 ± 4.8# %	57.8 ± 4.0
